What was measured:
Format in all cases: in vivo, C57BL/6J male mice
[1] = test system: streptozotocin-induced diabetic mice; test: Von Frey test: evaluating mechanical stimulus; conditions: 10 mg/kg i.p. once a day
Experimental: (§1) 9-week-old C57BL/6J male mice were purchased and familiarized with an animal facility for 1 week. 200 mg/kg of streptozotocin (streptozotocin; STZ) was administered […] into the peritoneal cavity of 10-week-old mice to prepare streptozotocin-induced diabetic mice (hereinafter also referred to as “STZ administration week 0”). One week after the administration of streptozotocin, blood was collected from the tail vein of the mice, and the blood glucose level (BS) was measured using an automatic blood glucose measuring device (product name: Medisafe (trademark) Mini GR-102, made by Terumo (Co)). Mice having a blood glucose level of 400 mg/dL or more were determined to be diabetic mice.
(§2) The SMTP-44D groups, the edaravone group, and the pregabalin group were administered SMTP-44D (0.3 mg/kg, 3 mg/kg, or 30 mg/kg doses, respectively), edaravone (10 mg/kg dose), or pregabalin (10 mg/kg dose) into the peritoneal cavity once a day for 3 consecutive weeks from the day following the first week to the fourth week after STZ administration.
The above-mentioned STZ group, SMTP-44D groups, edaravone group, pregabalin group, and control group mice were put in grid-like boxes, respectively, and were familiarized for one hour. After the familiarization, by using a Dynamic Plantar Aesthesiometer (tactometer) (manufactured by UGO BASILE Inc.), 1 g/s (that, pressurization increased by 1 g per second) of stimulation was imparted to the hind legs of these mice to measure mechanical thresholds (g) from the start of stimulation to the time when the mice withdrew their legs. The measurements were conducted for both hind legs three times at intervals of three minutes or longer, respectively. A mean value of three mechanical thresholds (g) was calculated for 1 mouse, and then a mean value of the 12 mice for the respective groups was found.

[2] = test system: streptozotocin-induced diabetic mice; test: Sciatic nerve conduction velocity; conditions: 10 mg/kg i.p. once a day, 4th week
Experimental: as §1, §2
(§3) Sciatic nerves of the above-mentioned STZ group, SMTP-44D groups, edaravone group, pregabalin group, and control group mice on the 4th week were exposed under isoflurane anesthesia, and then, using the full-field laser perfusion imager, their sciatic nerve blood flows (perfusion unit: PU) were measured. After the sciatic nerve blood flows were measured, a voltage was output from a PowerLab through the […] to impart an electrical stimulus to the sciatic nerves using needle electrodes. The electrical stimulus went through the Analog Stimulus Isolator via recording electrodes attached to the gastrocnemius and was input into the PowerLab, and thus neuromuscular function response curves were measured. The sciatic nerves were stimulated between two points at 8-mm intervals. The sciatic nerve conduction velocity (m/s) was calculated by dividing the […]. The sciatic nerve blood flow and sciatic nerve conduction velocity were measured using a Hot-1 small-sized heating controller and small-sized body temperature retention device (model number: […]-1), maintaining the rectal temperature at 37° C. The measurement results are described in Table 11.

malondialdehyde: MDA = test: Oxidative stress (MDA, TBARS assay) in sciatic nerve; conditions: 10 mg/kg i.p. once a day, 4th week
Experimental: as §1, §2
The sciatic nerves of the above-mentioned STZ group, SMTP-44D group (30 mg/kg), edaravone group, pregabalin group, and control group mice in the 4th week were homogenized using an RIPA buffer containing a protease inhibitor cocktail. Moreover, centrifugation was conducted at 4° C. for 15 minutes at 1600 g, and the supernatant was collected and used for measuring MDA (μM) and total protein concentration (μg/mL), respectively. MDA was measured using a TBARS Assay Kit. The total protein concentration was measured using a Pierce (Trademark) BCA Protein Assay Kit. Oxidative stress levels (nmol/mg protein) were calculated from MDA (μM) and the total protein concentration (μg/mL).

IL-1β = test: Inflammatory cytokine IL-1β in sciatic nerve (ELISA); conditions: 10 mg/kg i.p. once a day, 4th week
Experimental: as §1, §2
The sciatic nerves of the above-mentioned STZ group, SMTP-44D group (30 mg/kg), edaravone group, pregabalin group, and control group mice on the 4th week were homogenized using the RIPA buffer containing a protease inhibitor cocktail. Moreover, centrifugation was conducted at 4° C. for 15 minutes at 10,000 g, and the supernatant was collected and used for measuring TNF-α concentration (pg/mL), IL-1β concentration (pg/mL), IL-6 concentration (pg/mL), and total protein concentration (μg/mL), respectively. An ELISA assay kit was used for the TNF-α, IL-1β, and IL-6 concentrations. The total protein concentration was measured by using a Pierce (trademark) BCA Protein Assay Kit. The inflammatory cytokine level (pg/mg protein) in the total protein was calculated from the TNF-α concentration (pg/mL), IL-1β concentration (pg/mL), and IL-6 concentration (pg/mL), and total protein concentration (μg/mL).

[3] = test system: streptozotocin-induced diabetic mice; test: Hind plantar blood flow (laser perfusion imager); conditions: 10 mg/kg i.p. once a day
Experimental: as §1, §2
The hind plantar blood flows (perfusion unit: PU) of the above-mentioned STZ group, SMTP-44D groups, edaravone group, pregabalin group, and control group mice were measured under isoflurane anesthesia using a full-field laser perfusion imager.

[4] = test system: streptozotocin-induced diabetic mice; test: Sciatic nerve blood flow; conditions: 10 mg/kg i.p. once a day, 4th week
Experimental: as §1, §2, §3

[5] = test system: streptozotocin-induced diabetic mice; test: Thickness and G-ratio of myelin in the sciatic nerve; conditions: 10 mg/kg i.p. once a day, 4th week
Experimental: as §1, §2
The above-mentioned STZ group, SMTP-44D (30 mg/kg) group, edaravone group, pregabalin group, and control group mice in the 4th week were dissected to remove the sciatic nerves. The sciatic nerves were fixed using neutral buffered formalin and embedded using an Epon resin, and then semi-thin segments were formed and dyed using toluidine blue. The cross sections of the sciatic nerves in the respective specimens were examined using a microscope equipped with a digital camera at 400× magnification. The thickness of myelin ((diameter of axon including myelin diameter of axon)/2) and G-ratio (diameter of axon/diameter of axon including myelin) were measured.

[6] = 0th week (before dosing), listed as edaravone
[7] = 1st week (before dosing), listed as edaravone

CC1=NN(c2ccccc2)C(=O)C1 [Edaravone, edaravone]
von Frey test mechanical threshold ([1]; 0th week (before dosing)): 5.1 ± 0.1 g
von Frey test mechanical threshold [1, 6]: 5.1 ± 0.1 g
von Frey test mechanical threshold ([1]; 1st week (before dosing)): 4.1 ± 0.1 g
von Frey test mechanical threshold [1, 7]: 4.1 ± 0.1 g
von Frey test mechanical threshold ([1]; 2nd week): 4.6 ± 0.2 g
von Frey test mechanical threshold ([1]; 2nd week, listed as edaravone): 4.6 ± 0.2 g
von Frey test mechanical threshold ([1]; 3rd week): 4.8 ± 0.1 g
von Frey test mechanical threshold ([1]; 3rd week, listed as edaravone): 4.8 ± 0.1 g
von Frey test mechanical threshold ([1]; 4th week): 5.1 ± 0.2 g
von Frey test mechanical threshold ([1]; 4th week, listed as edaravone): 5.1 ± 0.2 g
Sciatic nerve conduction velocity [2]: 63.6 ± 1.8 m/s
Sciatic nerve conduction velocity ([2]; listed as edaravone): 63.6±1.8 m/s
MDA (oxidative stress) (malondialdehyde: MDA): 2.98 ± 0.39 nmol/mg protein
MDA (oxidative stress) (malondialdehyde: MDA; listed as edaravone): 2.98±0.39 nmol/mg protein
IL-1β (IL-1β): 24.54 ± 4.52 pg/mg protein
IL-1β (IL-1β; listed as edaravone): 24.54±4.52 pg/mg protein
Hind plantar blood flow ([3]; 0th week (before dosing)): 227.2 ± 12.5 PU
Hind plantar blood flow [3, 6]: 227.2±12.5 PU
Hind plantar blood flow ([3]; 1st week (before dosing)): 149.7 ± 11.5 PU
Hind plantar blood flow [3, 7]: 149.7±11.5 PU
Hind plantar blood flow ([3]; 2nd week, listed as edaravone): 161.4±9.1 PU
Hind plantar blood flow ([3]; 3rd week): 166.6 ± 7.5 PU
Hind plantar blood flow ([3]; 3rd week, listed as edaravone): 166.6±7.5 PU
Hind plantar blood flow ([3]; 4th week): 178.2 ± 9.9 PU
Hind plantar blood flow ([3]; 4th week, listed as edaravone): 178.2±9.9 PU
Sciatic nerve blood flow [4]: 1336.1 ± 46.7 PU
Sciatic nerve blood flow ([4]; listed as edaravone): 1336.1±46.7 PU
G-ratio [5]: 0.619 ± 0.005
Thickness of myelin [5]: 1.42 ± 0.02 μm
G-ratio ([5]; listed as edaravone): 0.619±0.005
Thickness of myelin ([5]; listed as edaravone): 1.42±0.02 μm

Reference: US20220218664A1, “DRUG AND METHOD FOR TREATING OR PREVENTING COMPLICATIONS FROM DIABETES, USING SAID DRUG” (TMS Co., Ltd., priority 2019, published 2022)
